Measured values from DBAASP.
Values after ≈ are worked out from the molar mass of the structure shown. Values joined by “and” are separate entries in the source; they are usually repeats but may differ in a detail not shown here. Equal entries are not always repeated.

Legend:
Assay in all cases: ≥ marks a high value that may be exact or a test limit, other limits are often not marked, values filed in µg/mL are converted to µM
[1] = system: Staphylococcus aureus P1369
[2] = system: Enterococcus faecalis ATCC 29212
[3] = system: Staphylococcus aureus ATCC 25923
[4] = system: Pseudomonas aeruginosa AB93066
Candida albicans AY93025 = system: Candida albicans AY93025
[5] = system: Staphylococcus aureus AB94004
[6] = system: Escherichia coli ATCC 35218
[7] = system: Staphylococcus epidermidis P1389
[8] = system: Pseudomonas aeruginosa ATCC 27853
Acinetobacter baumannii = system: Acinetobacter baumannii
[9] = system: Staphylococcus aureus P1374
[10] = system: Escherichia coli ATCC 25922
Escherichia coli AB94012 = system: Escherichia coli AB94012
[11] = system: Bacillus thuringiensis AB92037
[12] = system: Staphylococcus aureus P1386
[13] = system: Staphylococcus aureus ATCC 29213
[14] = system: Klebsiella pneumoniae ATCC 700603
[15] = system: Bacillus subtilis AB91021
[16] = system: Micrococcus luteus AB93113
[17] = system: Acinetobacter baumannii ATCC 19606
[18] = system: Candida albicans ATCC 90028
[19] = system: Escherichia coli ATCC 25726
[20] = system: Acinetobacter baumannii I NM8
[21] = system: Acinetobacter baumannii 5821
[22] = system: Candida glabrata ATCC 90030
Escherichia coli 09-240 = system: Escherichia coli 09-240
[23] = system: Enterobacter cloacae 06-267
[24] = system: Klebsiella pneumoniae 01-239
[25] = system: Staphylococcus aureus 06-051
[26] = system: Cryptococcus neoformans var. grubii H99
Escherichia coli 5509 = system: Escherichia coli 5509
[27] = system: Staphylococcus aureus 01-001
[28] = system: Pseudomonas aeruginosa 5106
[29] = system: Klebsiella pneumoniae 01-252
[30] = system: Pseudomonas aeruginosa ATCC 9027
Candida albicans SC5314 = system: Candida albicans SC5314
[31] = system: Pseudomonas aeruginosa 3599
[32] = system: Enterobacter cloacae 14-262
Escherichia coli 170 = system: Escherichia coli 170
Escherichia coli 09-280 = system: Escherichia coli 09-280
[33] = system: Candida tropicalis ATCC 750
[34] = system: Cryptococcus neoformans var. neoformans B3501
[35] = system: Candida parapsilosis ATCC 22019
Escherichia coli = system: Escherichia coli
Staphylococcus aureus = system: Staphylococcus aureus
Bacillus anthracis = system: Bacillus anthracis
Bacillus cereus = system: Bacillus cereus
[36] = system: Pseudomonas aeruginosa 08031014
[37] = system: Staphylococcus aureus ATCC 43300
Escherichia coli ML-35p = system: Escherichia coli ML-35p
[38] = system: Bacillus subtilis ATCC 6633
[39] = system: Candida albicans ATCC 20032
[40] = system: Pseudomonas aeruginosa PAO1

Q: `CC[C@H](C)[C@H](NC(=O)[C@H](C)NC(=O)CNC(=O)[C@@H]1CCCN1C(=O)[C@@H](NC(=O)[C@H](CC(C)C)NC(=O)CNC(=O)[C@H](Cc1c[nH]c2ccccc12)NC(=O)[C@H](CC(C)C)NC(=O)[C@@H](N)Cc1ccccc1)[C@@H](C)CC)C(=O)N[C@@H](CO)C(=O)N[C@@H](C)C(=O)N[C@H](C(=O)N[C@H](C(=O)N[C@@H](CO)C(=O)N[C@@H](CC(C)C)C(=O)N[C@H](C(=O)N[C@@H](CCCCN)C(=O)N[C@@H](CCCCN)C(N)=O)[C@@H](C)CC)[C@@H](C)O)C(C)C` [FLWGLIPGAISAVTSLIKK] was tested. Which MIC [1] did it give?
A: 4.96 µM (≈ 10 µg/mL)

Q: What about the MIC [2] of the same compound?
A: 31.8 µM (≈ 64 µg/mL)

Q: And the MIC [3]?
A: 15.9 µM (≈ 32 µg/mL)

Q: And the MIC [4]?
A: ≥ 49.6 µM

Q: What about the MIC (Candida albicans AY93025) of the same compound?
A: 9.93 µM (≈ 20 µg/mL)

Q: And the MIC [5]?
A: 2.48 µM (≈ 5 µg/mL)

Q: What about the MIC [6] of the same compound?
A: 31.8 µM (≈ 64 µg/mL)

Q: What about the MIC [7] of the same compound?
A: 4.96 µM (≈ 10 µg/mL)

Q: What about the MIC [8] of the same compound?
A: > 31.8 µM

Q: And the MIC (Acinetobacter baumannii)?
A: 14.4 µM (≈ 29.1 µg/mL)

Q: What about the MIC [9] of the same compound?
A: 4.96 µM (≈ 10 µg/mL)

Q: And the MIC [10]?
A: 31.8 µM (≈ 64 µg/mL)

Q: What about the MIC (Escherichia coli AB94012) of the same compound?
A: ≥ 49.6 µM

Q: And the MIC [11]?
A: 4.96 µM (≈ 10 µg/mL)

Q: What about the MIC [12] of the same compound?
A: 4.96 µM (≈ 10 µg/mL)

Q: And the MIC [13]?
A: 7.94 µM (≈ 16 µg/mL)

Q: And the MIC [14]?
A: > 31.8 µM

Q: What about the MIC [15] of the same compound?
A: 4.96 µM (≈ 10 µg/mL)

Q: And the MIC [16]?
A: 2.48 µM (≈ 5 µg/mL)

Q: What about the MIC [17] of the same compound?
A: 9.93 µM and 7.94 µM

Q: `CC[C@H](C)[C@H](NC(=O)[C@H](CC(C)C)NC(=O)[C@H](Cc1cnc[nH]1)NC(=O)[C@@H]1CCCN1C(=O)[C@H](CC(C)C)NC(=O)[C@@H](NC(=O)[C@H](CCCCN)NC(=O)[C@H](C)NC(=O)[C@@H](NC(=O)CNC(=O)[C@H](CCCCN)NC(=O)[C@H](CC(C)C)NC(=O)CNC(=O)[C@H](CC(C)C)NC(=O)[C@H](CCCCN)NC(=O)[C@H](CC(C)C)NC(=O)[C@H](CC(C)C)NC(=O)[C@@H]1CCCN1C(=O)CNC(=O)[C@H](CC(C)C)NC(=O)[C@H](Cc1ccccc1)NC(=O)CN)C(C)C)C(C)C)C(=O)N1CCC[C@H]1C(=O)N[C@@H](CO)C(=O)N[C@@H](CCCN=C(N)N)C(=O)N[C@@H](CCC(N)=O)C(=O)N[C@@H](CCC(N)=O)C(=O)O` [GFLGPLLKLGLKGVAKVLPHLIPSRQQ] was tested. Which MIC [3] did it give?
A: 6 µM (≈ 17.3 µg/mL)

Q: What about the MIC [18] of the same compound?
A: 25 µM (≈ 72 µg/mL)

Q: What about the MIC [19] of the same compound?
A: 25 µM (≈ 72 µg/mL)

Q: And the MIC [8]?
A: 6 µM (≈ 17.3 µg/mL)

Q: What about the MIC [20] of the same compound?
A: 12.5 µM (≈ 36 µg/mL)

Q: What about the MIC [14] of the same compound?
A: 25 µM (≈ 72 µg/mL)

Q: What does the source list for `CC[C@H](C)[C@H](N)C(=O)N[C@@H](CC(C)C)C(=O)N[C@@H](CO)C(=O)N[C@@H](C)C(=O)N[C@H](C(=O)N[C@@H](Cc1c[nH]c2ccccc12)C(=O)N[C@@H](CO)C(=O)NCC(=O)N[C@H](C(=O)N[C@@H](CCCCN)C(=O)N[C@@H](CO)C(=O)N[C@@H](CC(C)C)C(=O)N[C@@H](Cc1ccccc1)C(N)=O)[C@@H](C)CC)[C@@H](C)CC` [ILSAIWSGIKSLF]?
A: MIC [21]: 10 µM (≈ 14.3 µg/mL); MIC [22]: ≥ 400 µM; MIC (Escherichia coli 09-240): 30 µM (≈ 43 µg/mL); MIC [3]: 10 µM (≈ 14.3 µg/mL); MIC [23]: ≥ 32 µM; MIC [24]: 30 µM (≈ 43 µg/mL); MIC [25]: 4 µM (≈ 5.74 µg/mL); MIC [26]: 25 µM (≈ 35.8 µg/mL); MIC (Escherichia coli 5509): ≥ 32 µM; MIC [27]: 4 µM (≈ 5.74 µg/mL); MIC [28]: ≥ 32 µM; MIC [29]: ≥ 32 µM; MIC [8]: > 32 µM; MIC [30]: 6 µM (≈ 8.6 µg/mL); MIC (Candida albicans SC5314): 25 µM (≈ 35.8 µg/mL); MIC [31]: ≥ 32 µM; MIC [32]: ≥ 32 µM; MIC (Escherichia coli 170): ≥ 32 µM; MIC (Escherichia coli 09-280): ≥ 32 µM; MIC [10]: 15 µM (≈ 21.5 µg/mL); MIC [33]: 25 µM (≈ 35.8 µg/mL); MIC [13]: 8 µM (≈ 11.5 µg/mL); MIC [34]: 12.5 µM (≈ 17.9 µg/mL); MIC [35]: ≥ 400 µM

Q: What does the source list for `CC[C@H](C)[C@H](NC(=O)[C@H](Cc1ccccc1)NC(=O)[C@@H](NC(=O)[C@@H](N)CCCCN)C(C)C)C(=O)N[C@@H](C)C(=O)N[C@H](C(=O)N[C@@H](CC(C)C)C(=O)N[C@H](C(=O)N[C@H](C(=O)N[C@@H](CO)C(=O)N[C@@H](CO)C(=O)N[C@@H](Cc1ccccc1)C(=O)N[C@@H](CC(C)C)C(=O)N[C@@H](CC(C)C)C(=O)N[C@@H](C)C(=O)N[C@@H](CCCCN)C(=O)N1CCC[C@H]1C(=O)N1CCC[C@H]1C(=O)N[C@@H](CCCN=C(N)N)C(=O)N[C@H](C(=O)O)C(C)C)C(C)C)C(C)C)[C@@H](C)O` [KVFIATLVVSSFLLAKPPRV]?
A: MIC (Escherichia coli): > 117 µM; MIC (Staphylococcus aureus): > 117 µM; MIC (Bacillus anthracis): ≥ 117 µM; MIC (Bacillus cereus): ≥ 117 µM

Q: Which MIC [3] does the source give for `CC[C@H](C)[C@H](NC(=O)[C@H](CCCCN)NC(=O)[C@@H](NC(=O)[C@H](Cc1c[nH]c2ccccc12)NC(=O)[C@H](CS)NC(=O)[C@H](CCCNC(=N)N)NC(=O)[C@@H]1CCCN1C(=O)[C@@H](N)CCCNC(=N)N)[C@@H](C)CC)C(=O)N[C@@H](CCCCN)C(=O)N[C@@H](Cc1ccccc1)C(=O)N[C@@H](CCCNC(=N)N)C(=O)N[C@@H](CS)C(=O)N[C@@H](CCCCN)C(=O)N[C@@H](CO)C(=O)N[C@@H](CC(C)C)C(=O)N[C@@H](CCCCN)C(=O)N[C@@H](Cc1ccccc1)C(=O)O` [RPRCWIKIKFRCKSLKF] here?
A: 4.24 µM (≈ 9.38 µg/mL)

Q: What about the MIC (Escherichia coli) of the same compound?
A: 24 µM (≈ 53 µg/mL)

Q: And the MIC [36]?
A: 17 µM (≈ 37.5 µg/mL)

Q: What about the MIC [37] of the same compound?
A: 4.24 µM (≈ 9.38 µg/mL)

Q: And the MIC (Escherichia coli ML-35p)?
A: 17 µM (≈ 37.5 µg/mL)

Q: What about the MIC [8] of the same compound?
A: 8.48 µM (≈ 18.8 µg/mL)

Q: What about the MIC [38] of the same compound?
A: ≥ 45.3 µM

Q: And the MIC [39]?
A: 8.48 µM (≈ 18.8 µg/mL)

Q: And the MIC [10]?
A: 17 µM (≈ 37.5 µg/mL)

Q: What about the MIC [40] of the same compound?
A: 4.24 µM (≈ 9.38 µg/mL)
